# Assay results from patent US20230088214A1, “GLYCOLATE OXIDASE INHIBITORS FOR THE TREATMENT OF DISEASE” (BIOMARIN PHARMACEUTICAL INC., priority 2019, published 2023).
# What was measured:
# GO [1] = target: T1, GO (Mus musculus, UniProt Q9WU19); experiment: GO Cellular Assay: Primary Hepatocyte Assay (Assay 2); type: cell-based; settings: primary mouse hepatocytes, 5 mM glycolate, oxalate at 72 hours; read-out: Range of IC50 values calculated from the cellular assays (Assay 2)
# T1 construct: endogenous in cells; host or cells: primary hepatocytes from male C56BL/6 (so in the source) mouse liver
# T1 sequence (Q9WU19 1-370): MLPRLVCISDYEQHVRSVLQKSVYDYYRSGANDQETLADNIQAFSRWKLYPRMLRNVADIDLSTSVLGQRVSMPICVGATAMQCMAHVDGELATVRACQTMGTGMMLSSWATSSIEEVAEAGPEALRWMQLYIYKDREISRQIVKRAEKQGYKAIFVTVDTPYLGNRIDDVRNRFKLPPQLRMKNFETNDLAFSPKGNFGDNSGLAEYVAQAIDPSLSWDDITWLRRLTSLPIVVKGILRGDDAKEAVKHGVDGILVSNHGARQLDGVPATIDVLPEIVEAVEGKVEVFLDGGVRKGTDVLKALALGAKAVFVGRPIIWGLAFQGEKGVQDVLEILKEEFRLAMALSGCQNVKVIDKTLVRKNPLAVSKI
# Protocol: Assay 2: GO Cellular Assay: Primary Hepatocyte Assay
# Primary hepatocytes were used for a GO cellular assay as previously described (Martin-Higueras et al., Mol Ther. 24(4): 719-725 (2016)). Hepatocytes were isolated using an in situ collagenase perfusion method from male C56BL/6 mice liver. The freshly isolated hepatocytes were cultured in six well plates with Williams E medium supplemented with 5% fetal bovine serum, 2 mM 1-glutamine, 100 U/ml penicillin, 100 μg/ml streptomycin, 2.2 mUI/ml insulin and 0.3 μg/ml hydrocortisone. After 5 hours, the medium was changed to Williams E complete medium (Biochrom, Cambridge, UK) without serum and cells were treated with various concentrations of inhibitors in the presence of 5 mM glycolate. Culture medium was harvested at 72 hours after treatment, and the oxalate was quantified by using an oxalate oxidase assay kit (Trinity Biotech, Co Wicklow, Ireland) following manufacturer's instructions. The oxalate level was also confirmed by LC-MS method. The IC50 value for each measured compound was generated from sigmoidal dose-response (variable slope) curves with GraphPad Prism software (GraphPad Software, Inc., San Diego, Calif.) using the percent inhibition of GO activity relative to DMSO control.
# GO [2] = target: T2, GO (Homo sapiens, UniProt Q9UJM8); experiment: GO Cellular Assay: CHO-Agt Cells Assay (Assay 3); type: cell-based, Chinese hamster; set-up: host or cells: CHO cells (A.T.C.C. CCl-61) and engineered CHO-Agt cells (from Fargue/Danpure); settings: 100 uM glycolic acid, glyoxylate by LC-MS at 2 hours, read-out: Range of IC50 values calculated from the cellular assays (Assay 3)
# T2 sequence (Q9UJM8 1-370): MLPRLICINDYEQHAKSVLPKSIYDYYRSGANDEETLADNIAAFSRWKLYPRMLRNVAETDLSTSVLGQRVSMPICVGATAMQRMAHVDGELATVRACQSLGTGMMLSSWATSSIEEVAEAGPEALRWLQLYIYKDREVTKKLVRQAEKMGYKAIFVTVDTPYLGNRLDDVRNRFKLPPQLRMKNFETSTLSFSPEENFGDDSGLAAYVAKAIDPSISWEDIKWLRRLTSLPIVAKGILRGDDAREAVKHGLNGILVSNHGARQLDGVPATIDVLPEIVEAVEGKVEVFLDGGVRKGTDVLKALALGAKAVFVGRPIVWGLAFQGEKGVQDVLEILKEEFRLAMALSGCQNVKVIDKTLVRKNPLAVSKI
# Protocol: Assay 3: GO Cellular Assay: CHO-Agt Cells Assay
# CHO cells (A.T.C.C. number CCl-61) and engineered CHO-Agt cells (provided by Dr. Sonia Fargue and Dr. Christopher J. Danpure, Biochem. J. (2006) 394, 409-416) were used as a screening cellular assay for primary compounds. The cells were seeded in 20,000 cell/well in 96 well plate and cultured at 37-C under O2/CO2 (19:1) in Ham's F12 medium (Invitrogen) supplemented with fetal calf serum (10%, v/v), L-glutamine (2 mM), penicillin (100 units/ml) and streptomycin (100 pug/ml). After overnight culture, the cells were treated with various concentrations of inhibitors in the presence of 100 uM glycolic acid in HEPES buffer, pH7.0 (Sigma-Aldrich, Cat #124737). Culture medium was harvested at 2 hours after treatment for glyoxylate analysis and cell viability was measured by Cell Titer-Glo (Fisher Scientific, Cat #. PR-G7570).
# The glyoxylate was quantified using LC-MS method. An aliquot of 120 μL medium was removed from each well and protein precipitated by adding 240 μL IS (100 ng/ml 13C2-glyoxylic acid, Sigma-Aldrich, Cat #G755002). The mixture was vortex-mixed well and centrifuged at 3900 rpm for 15 min, 4° C. 100 μL supernatant was then mixed with 10 μL formic acid and 100 μL 400 μM DNPH (2,4-dinitrophenylhydrazine) (Shanghai Runjie Huaxue Shiji Ltd., Cat #A0000436) and the mixture was shaken for 30 minutes. A 3 μL mixture of reaction mixture was injected for LC-MS/MS analysis. (Behnam J T, Williams E L, Brink S, Rumsby G, Danpure C J., “Reconstruction of human hepatocyte glyoxylate metabolic pathways in stably transformed Chinese-hamster ovary cells”, Biochem J. 2006 Mar. 1; 394 (Pt 2):409-16.)
Compound,IC50 (GO [1]),IC50 (GO [2])
"CCN(CC)C(=O)OCOC(=O)c1[nH]nnc1O[C@H]1CC[C@H](c2ccc(OC(F)(F)F)cc2)CC1 [Compound 370, ((diethylcarbamoyl)oxy)methyl 4-(((trans)-4-(4-(trifluoromethoxy)phenyl)cyclohexyl)oxy)-1H-1,2,3-triazole-5-carboxylate]",< 1 µM,–
"CC(C)C(=O)OCCOC(=O)c1[nH]nnc1O[C@H]1CC[C@H](c2ccc(OC(F)(F)F)cc2)CC1 [Compound 371, 2-(isobutyryloxy)ethyl 4-(((trans)-4-(4-(trifluoromethoxy)phenyl)cyclohexyl)oxy)-1H-1,2,3-triazole-5-carboxylate]",< 1 µM,–
"OCc1[nH]nnc1Oc1ccc(-c2ccc(OC(F)(F)F)cc2)cc1 [Compound 487, (4-((4′-(trifluoromethoxy)-[1,1′-biphenyl]-4-yl)oxy)-1H-1,2,3-triazol-5-yl)methanol]",1 to 5 µM,1 to 5 µM
"OCc1[nH]nnc1O[C@H]1CC[C@H](c2ccc(OC(F)(F)F)cc2)CC1 [Compound 488, (4-(((trans)-4-(4-(trifluoromethoxy)phenyl)cyclohexyl)oxy)-1H-1,2,3-triazol-5-yl)methanol]",< 1 µM,1 to 5 µM
"O=Cc1[nH]nnc1O[C@H]1CC[C@H](c2ccc(OC(F)(F)F)cc2)CC1 [Compound 490, 4-(((trans)-4-(4-(trifluoromethoxy)phenyl)cyclohexyl)oxy)-1H-1,2,3-triazole-5-carbaldehyde]",< 1 µM,< 1 µM
"O=Cc1[nH]nnc1Oc1ccc(-c2ccc(OC(F)(F)F)cc2)cc1 [Compound 491, 4-((4′-(trifluoromethoxy)-[1,1′-biphenyl]-4-yl)oxy)-1H-1,2,3-triazole-5-carbaldehyde]",< 1 µM,< 1 µM
"OCc1[nH]nnc1Sc1ccc(-c2ccc(N3CCCCC3)cc2)cc1 [Compound 492, (4-((4′-(piperidin-1-yl)-[1,1′-biphenyl]-4-yl)thio)-1H-1,2,3-triazol-5-yl)methanol]",< 1 µM,> 10 µM
"OCc1[nH]nnc1Oc1ccc(-c2ccc(Cl)c(Cl)c2)cc1 [Compound 493-1, (4-((3′,4′-dichloro-[1,1′-biphenyl]-4-yl)oxy)-1H-1,2,3-triazol-5-yl)methanol]",< 1 µM,1 to 5 µM
"OCc1nn[nH]c1Oc1ccc(-c2ccc(N3CCCCC3)cc2)cc1 [Compound 496, (4-((4′-(piperidin-1-yl)-[1,1′-biphenyl]-4-yl)oxy)-1H-1,2,3-triazol-5-yl)methanol]",< 1 µM,< 1 µM
